Results as given in ChEMBL document CHEMBL4190340, “Studies on the cytotoxicity and anticancer performance of heterocyclic hypervalent organobismuth(III) compounds” (Eur J Med Chem, 2017).
Activity calls are given as the source filed them. The rule behind the calls is not given here.

Tests used:
A549 [1] = experiment: Induction of apoptosis in human A549 cells assessed as reduction in pro caspase 3 level at 10 uM after 24 hrs by Western blot analysis; assay type: functional, cell-based
A549 [2] = experiment: Cytotoxicity against human A549 cells assessed as reduction in cell viability after 48 hrs by CCK8 assay; assay type: functional, cell-based
Homo sapiens = species: Homo sapiens; experiment: Cytotoxicity against human […] cells assessed as reduction in cell viability after 48 hrs by CCK8 assay; assay type: functional, cell-based
SGC-7901 = experiment: Cytotoxicity against human SGC7901 cells assessed as reduction in cell viability after 48 hrs by CCK8 assay; assay type: functional, cell-based
SW480 = experiment: Cytotoxicity against human SW480 cells assessed as reduction in cell viability after 48 hrs by CCK8 assay; assay type: functional, cell-based
A549 [3] = experiment: Induction of apoptosis in human A549 cells assessed as cell shrinkage at 10 uM after 48 hrs by Annexin V-FITC/propidium iodide staining based laser scanning confocal microscopic analysis; assay type: functional
A549 [4] = experiment: Induction of apoptosis in human A549 cells assessed as connection disappearance at 10 uM after 48 hrs by Annexin V-FITC/propidium iodide staining based laser scanning confocal microscopic analysis; assay type: functional, cell-based
A549 [5] = experiment: Induction of apoptosis in human A549 cells assessed as nuclear enrichment at 10 uM after 48 hrs by Annexin V-FITC/propidium iodide staining based laser scanning confocal microscopic analysis; assay type: functional, cell-based
A549 [6] = experiment: Induction of apoptosis in human A549 cells assessed as membrane blebbing at 10 uM after 48 hrs by Annexin V-FITC/propidium iodide staining based laser scanning confocal microscopic analysis; assay type: functional, cell-based
A549 [7] = experiment: Induction of apoptosis in human A549 cells after 48 hrs by Annexin V-FITC/propidium iodide staining based flow cytometric analysis; assay type: functional, cell-based
A549 [8] = experiment: Induction of apoptosis in human A549 cells assessed as early apoptotic cells at 3 uM after 48 hrs by Annexin V-FITC/propidium iodide staining based flow cytometric analysis (reference value: 2.89%); assay type: functional, cell-based
A549 [9] = experiment: Induction of apoptosis in human A549 cells assessed as late apoptotic cells at 3 uM after 48 hrs by Annexin V-FITC/propidium iodide staining based flow cytometric analysis (reference value: 1.73%); assay type: functional, cell-based
A549 [10] = experiment: Induction of apoptosis in human A549 cells assessed as necrotic cells at 3 uM after 48 hrs by Annexin V-FITC/propidium iodide staining based flow cytometric analysis (reference value: 1.21%); assay type: functional, cell-based
A549 [11] = experiment: Induction of apoptosis in human A549 cells assessed as early apoptotic cells at 10 uM after 48 hrs by Annexin V-FITC/propidium iodide staining based flow cytometric analysis (reference value: 2.89%); assay type: functional, cell-based
A549 [12] = experiment: Induction of apoptosis in human A549 cells assessed as late apoptotic cells at 10 uM after 48 hrs by Annexin V-FITC/propidium iodide staining based flow cytometric analysis (reference value: 1.73%); assay type: functional, cell-based
A549 [13] = experiment: Induction of apoptosis in human A549 cells assessed as necrotic cells at 10 uM after 48 hrs by Annexin V-FITC/propidium iodide staining based flow cytometric analysis (reference value: 1.21%); assay type: functional, cell-based
A549 [14] = experiment: Upregulation of Bax mRNA expression in human A549 cells at 10 uM after 24 hrs by qRT-PCR analysis; assay type: functional, cell-based
A549 [15] = experiment: Downregulation of Bcl-2 mRNA expression in human A549 cells at 10 uM after 24 hrs by qRT-PCR analysis; assay type: functional, cell-based
A549 [16] = experiment: Upregulation of Bax protein level in human A549 cells at 3 to 10 uM after 24 hrs by Western blot analysis; assay type: functional, cell-based
A549 [17] = experiment: Downregulation of Bcl-2 protein level in human A549 cells at 3 to 10 uM after 24 hrs by Western blot analysis; assay type: functional, cell-based
A549 [18] = experiment: Induction of apoptosis in human A549 cells assessed as early apoptotic cells by Annexin V-FITC/propidium iodide staining based flow cytometric analysis (reference value: 1.43%); assay type: functional, cell-based
A549 [19] = experiment: Induction of apoptosis in human A549 cells assessed as late apoptotic cells by Annexin V-FITC/propidium iodide staining based flow cytometric analysis (reference value: 1.66%); assay type: functional, cell-based
A549 [20] = experiment: Induction of apoptosis in human A549 cells assessed as necrotic cells by Annexin V-FITC/propidium iodide staining based flow cytometric analysis (reference value: 0.96%); assay type: functional, cell-based
A549 [21] = experiment: Induction of apoptosis in human A549 cells assessed as early apoptotic cells in presence of z-VAD-fmk by Annexin V-FITC/propidium iodide staining based flow cytometric analysis (reference value: 1.43%); assay type: functional, cell-based
A549 [22] = experiment: Induction of apoptosis in human A549 cells assessed as late apoptotic cells in presence of z-VAD-fmk by Annexin V-FITC/propidium iodide staining based flow cytometric analysis (reference value: 1.66%); assay type: functional, cell-based
A549 [23] = experiment: Induction of apoptosis in human A549 cells assessed as necrotic cells in presence of z-VAD-fmk by Annexin V-FITC/propidium iodide staining based flow cytometric analysis (reference value: 0.96%); assay type: functional, cell-based

## 5H-dibenzo[c,f][1,5]oxabismocin-12(7H)-yl nitrate
A549 [1]
  Activity: Active
A549 [2]
  Activity: Dose-dependent effect
Homo sapiens
  Activity: Dose-dependent effect
SGC-7901
  Activity: Dose-dependent effect
SW480
  Activity: Dose-dependent effect
A549 [3]
  Activity: Active
A549 [4]
  Activity: Active
A549 [5]
  Activity: Active
A549 [6]
  Activity: Active
A549 [7]
  Activity: Dose-dependent effect
A549 [8]
  Activity: 5.18%
A549 [9]
  Activity: 4.16%
A549 [10]
  Activity: 0.617%
A549 [11]
  Activity: 17.4%
A549 [12]
  Activity: 4.24%
A549 [13]
  Activity: 6.68%
A549 [14]
  Activity: Active
A549 [15]
  Activity: Active
A549 [16]
  Activity: Active
A549 [17]
  Activity: Active
A549 [18]
  Activity: 18.6%
A549 [19]
  Activity: 10.2%
A549 [20]
  Activity: 2.24%
A549 [21]
  Activity: 3.19%
A549 [22]
  Activity: 5.26%
A549 [23]
  Activity: 2.66%
